From the supplement of paper PMC9265050, “Inhibition of RNA Binding in SND1 Increases the Levels of miR-1-3p and Sensitizes Cancer Cells to Navitoclax” (Cancers, 2022)

System: SW480
Test: drug sensitivity score (DSS, integrated dose-response area); higher = more sensitive (stronger viability reduction); extreme values may be limits of the assay
How it was run: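 SW480 cells stably carrying doxycycline-inducible control or SND1-targeting shRNA were induced with 0.1 µg/mL doxycycline for 7 days. They were then plated at 1000 cells per well in 384-well plates holding 525 commercially available small-molecule inhibitors at five concentrations. Viability was read with CellTiter-Glo after 72 h. The drug sensitivity score integrates the area under a fitted non-linear dose–response model.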

[1] = shRNA: SND1 shRNA1 (SND1 silenced)
[2] = shRNA: control shRNA (non-targeting)
[3] = shRNA: SND1 shRNA2 (SND1 silenced)

| Structure (SMILES) | drug sensitivity score [1] [DSS] | drug sensitivity score [2] [DSS] | drug sensitivity score [3] [DSS] |
| --- | --- | --- | --- |
| C[C@@H](Oc1cc(-n2cnc3ccc(CN4CCN(C)CC4)cc32)sc1C(N)=O)c1ccccc1C(F)(F)F | 25.1 | 23.6 |  |
| CNC(=O)c1cccc(-c2ccc3c(N4CCOC[C@@H]4C)nc(N4CCOC[C@@H]4C)nc3n2)c1 [AZD2014] | 13.2 | 9.6 | 12.6 |
| O=C(Cc1ccc(-c2ccc(OCCN3CCOCC3)cc2)cn1)NCc1ccccc1 [KX2-391] | 15 | 18.9 | 17.4 |
| O=C(c1ccc(/C=C/c2n[nH]c3ccccc23)cc1)N1CCNCC1 [KW-2449] | 0.7 | 0.2 | 0 |
| CC(C)(C)NC(=O)[C@H]1CC[C@H]2[C@@H]3CC[C@H]4NC(=O)C=C[C@]4(C)[C@H]3CC[C@]12C [Finasteride] | 0 | 0.4 | 0 |
| CC(=O)c1cnc2ccc(-c3cc(Cl)c(O)c(Cl)c3)nc2c1N[C@H]1CC[C@H](CN(C)C)CC1 [OTSSP167] | 9.8 | 10.6 | 8.7 |
| CN1CCN(c2nc(C3=C(c4c[nH]c5ccccc45)C(=O)NC3=O)c3ccccc3n2)CC1 [Sotrastaurin] | 4.5 | 4.9 | 0.5 |
| CC(=O)O[C@H]1C(=O)[C@@]2(C)[C@H]([C@H](OC(=O)c3ccccc3)[C@]3(O)C[C@H](OC(=O)[C@H](O)[C@@H](NC(=O)c4ccccc4)c4ccccc4)C(C)=C1C3(C)C)[C@]1(OC(C)=O)CO[C@@H]1C[C@@H]2O [Paclitaxel] | 11.5 | 14.1 | 12.5 |
| COc1cc2c(NC3CCN(C(C)C)CC3)nc(N3CCC(F)(F)CC3)nc2cc1OCCCN1CCCC1 [UNC0642] | 4.7 | 8.4 | 8.7 |
| Cc1cnc(NC(=O)Nc2cc(Br)c(C)cc2OC[C@@H]2CNCCO2)cn1 [Rabusertib] | 1.8 | 2 | 1.4 |
| C#Cc1cccc(Nc2ncnc3cc(OC)c(OCCCCCCC(=O)NO)cc23)c1 [CUDC-101] | 11.3 | 10.7 | 12.6 |
| CN(C)CCOc1ccc(/C(=C(/CCCl)c2ccccc2)c2ccccc2)cc1 [Toremifene] | 2.6 | 3.1 | 1.7 |
| Cc1cc(Nc2cc(N3CCN(C)CC3)nc(Sc3ccc(NC(=O)C4CC4)cc3)n2)n[nH]1 [Tozasertib] | 8.6 | 4.8 |  |
| Cc1cc(Nc2cc(N3CCN(C)CC3)nc(/C=C/c3ccccc3)n2)n[nH]1 [ENMD-2076] | 11.9 | 12 | 10.7 |
| Cc1nc(N)sc1-c1ccnc(Nc2ccc(N3CCOCC3)cc2)n1 [CYC-116] | 9.3 | 8.8 |  |
| CCNC(=O)Nc1ccc(-c2nc3c(c(N4CCOC[C@@H]4C)n2)CCN(C2COC2)C3)cc1 [RG-7603] | 0.7 | 0.7 | 1.3 |
| COc1cc2c(N3CCN(C(=O)Nc4ccc(OC(C)C)cc4)CC3)ncnc2cc1OCCCN1CCCCC1 [Tandutinib] | 0.5 | 3 | 4.3 |
| O=C(Nc1ccc(-c2ccnc(Nc3ccc(N4CCOCC4)cc3)n2)cc1)C1CCCN1 (stereo unspecified) [XL019] | 0.1 | 1.7 |  |
| O=c1[nH]cc(F)c(=O)[nH]1 [Fluorouracil] | 0.5 | 1.1 | 0 |
| O=c1sn(-c2cccc3ccccc23)c(=O)n1Cc1ccccc1 [Tideglusib] | 0.1 | 0.1 | 1.2 |
| C[C@@H]1C=C2C(=O)O[C@@H]3CC[C@H](C1)[C@]23O [Galiellalactone] | 3.8 | 3.4 | 4.2 |
| Nc1ccccc1NC(=O)c1ccc(CNC(=O)OCc2cccnc2)cc1 [Entinostat] | 5.3 | 2.8 | 2.6 |
| COc1cccc2c1C(=O)c1c(O)c3c(c(O)c1C2=O)C[C@@](O)(C(=O)CO)C[C@@H]3O[C@H]1C[C@H](N)[C@H](O)[C@H](C)O1 [Doxorubicin] | 4.5 | 4.1 | 4.1 |
| Cc1[nH]c2ccccc2c1CCNCc1ccc(/C=C/C(=O)NO)cc1 [Panobinostat] | 19.9 | 17.4 | 19.2 |
| CC/C(=C(\c1ccc(O)cc1)c1ccc(OCCN(C)C)cc1)c1ccccc1 [4-hydroxytamoxifen] | 6.8 | 8.7 | 5.4 |
